From article PMC11492869, “Dimerization and lysine substitution of melittin have differing effects on bacteria” (Frontiers in Pharmacology, 2024)
Values after ≈ are worked out from the molar mass of the structure shown. Read-outs that look alike come from different tables or passages of the source.

Legend:
Format in all cases: cell-based
E. coli ATCC 8739 [1] = conditions: cation-adjusted MHB, 1 × 10^5 cells/well, 90 min incubation with peptide at 37°C, then growth monitored 20 h at OD630, Lambert and Pearson analysis, mean ± SD, at least three biological repeats
Protocol: (§1) For the antimicrobial peptide assays, a 10 mL starter culture was produced by taking single colonies from LB agar plates to inoculate in Lysogeny/Luria Broth (1% w/v Oxoid Tryptone, 0.5% w/v NaCl, 0.5% w/v Oxoid Yeast Extract, pH 7.0, Thermo Scientific Pty, Ltd., Sydney, Australia) for bacteria; S. aureus ATCC 29213 and E. coli ATCC 8739 were grown aerobically at 37°C in an orbital shaker (Minitron, Infors HT) at 200 rpm. After overnight incubation, 0.5–1.0 mL of the starter culture was used to inoculate fresh LB broth (20 mL), and its growth was monitored at 600 nm using a spectrophotometer (model Varian Cary 50 Bio UV-Vis). Bacteria were harvested during the late exponential growth phase, and CFUs/mL were determined using the growth curve data set that correlated OD600 to CFUs/mL.
Antibacterial assays were undertaken to determine the minimum inhibitory concentration (MIC), the minimum bactericidal concentration (MBC), and the level of membrane disruption of each of the antimicrobial peptides (AMPs) and multimerized AMPs. For each bacterium, a stock solution (2 × 10^6 cells/mL) in cation-adjusted Mueller Hinton Broth (MHB) was made, and an aliquot was incubated with AMPs within 15 min from viable cell count and stock preparation. […] After the 90-min incubation period, the antimicrobial activity (MIC and MBC) was determined as follows: […]

H4IIE cells [2] = assay: Inhibition of cell proliferation, MTS assay; conditions: for TI (cell proliferation): H4IIE, IC50/MIC50
Protocol: (§2) To determine the inhibition of cell proliferation, 20 μL of 3-(4,5-dimethylthiazol-2-yl)-5-(3-carboxymethoxyphenyl)-2-(4-sulfophenyl)-2H-tetrazolium (MTS) solution (CellTiter 96 AQueous Non-Radioactive Cell Proliferation Assay kit, Promega) was added to the remaining 100 µL from the toxicity assay, and the plates were incubated for a further 1 h at 37°C in a 5% CO2 incubator protected from light. Cell proliferation was determined by measuring absorbance at 490 nm using a microplate reader (PerkinElmer 1,420 Multilabel Counter VICTOR3). Positive and negative controls for inhibition were taken as cells incubated with lysis solution (CytoTox 96® Non-Radioactive Cytotoxicity Assay kit, Promega) and cells incubated in media alone, respectively. The background absorbance of media alone was subtracted from the samples, and the percentage of inhibition was calculated using the following formula: % Inhibition=A490 test sample−A490 negative control/A490 positive control−A490 negative control×100.
(§3) The percentage of inhibition was plotted against peptide concentration, and linear regression analysis was used to determine the AMP concentration needed to inhibit 50% (IC50) of cell growth.

[3] = tested on: HEK-293 (ATCC CRL-1573) cells; assay: Inhibition of cell proliferation, MTS assay; conditions: for TI (cell proliferation): HEK293, IC50/MIC50
Protocol: as §2, §3

S. aureus ATCC 29213 = assay: microbe, parasite or virus in culture; conditions: 90 min incubation at 37°C, plated on LB agar 12–24 h, lowest concentration giving less than one CFU (≥99.9% reduction), mean ± SD, at least three biological repeats
Protocol: as §1
(§4) Antibacterial assays were undertaken to determine the minimum inhibitory concentration (MIC), the minimum bactericidal concentration (MBC), and the level of membrane disruption of each of the antimicrobial peptides (AMPs) and multimerized AMPs. […] After the 90-min incubation period, the antimicrobial activity (MIC and MBC) was determined as follows:
(§5) The CLSI protocol was followed to determine MBC. After incubation, bacteria were serially diluted (1:10) in PBS, plated on LB agar, and incubated for 12–24 h at 37°C; then, the CFUs were quantified. […]

[4] = tested on: Chicken red blood cells (RBCs); assay: Hemolysis assay
Protocol: Chicken red blood cells (RBCs) in Alsever’s solution (RBCs, Equicell, Victoria, Australia) were diluted 1 in 20 in PBS (pH 7.4), pelleted by centrifugation, and washed three times in PBS (1,000 g, 10 min). The RBCs were counted using a cell counter (Coulter Particle Counter Z series, Beckman Coulter) and diluted to a final concentration of 2 × 10^7 cells/mL. Aliquots (100 μL) of the RBC solution were seeded into a V-bottomed 96-well plate containing 100 μL of serial dilutions (10–0.08 μM) of the AMP in PBS and incubated in a humidified atmosphere containing 5% CO2 at 37°C for 2 h. Following incubation, the RBCs were pelleted in a centrifuge (1,000 g, 10 min), and the amount of hemoglobin released in 100 μL aliquots of the supernatant was determined by measuring the absorbance at 405 nm using a microplate reader (PerkinElmer 1,420 Multilabel Counter VICTOR3). Positive and negative controls for hemolysis were taken as RBC lysed with 1% v/v Triton X-100 and RBC suspension in PBS, respectively. The percentage of hemolysis was calculated using the following formula: % Hemolysis A405 test sample−A405 negative control / A405 positive control−A405 negative controlx 100.
The percentage hemolysis was plotted against peptide concentration, and linear regression analysis was used to determine the hemolytic concentration needed to lyse 50% (HC50) of RBCs.

H4IIE cells [5] = assay: Cytotoxicity (cell lysis), LDH release assay; conditions: for TI (cell lysis): H4IIE, LD50/MBC50
Protocol: (§6) To determine toxicity toward mammalian cells, 1 × 10^4 cells/well of HEK-293 (ATCC CRL-1573TM) or H4IIE in a total volume of […] in media (Eagle’s Minimum Essential Medium (EMEM) supplemented with 10% v/v fetal bovine serum, 5% v/v L-glutamine and 5% v/v penicillin/streptomycin) were seeded into 96-well plates and cultured at 37°C in a 5% CO2 incubator for 16–20 h. When cells were ≥90% confluent, the 100 µL media was removed and replaced with 50 μL serial dilutions of the AMP in media (final concentration 20–0.5 μM) and cultured at 37°C in a 5% CO2 incubator for 90 min. From each well, 50 µL was transferred to a new plate. To the 50 μL, 50 µL of lactate dehydrogenase (LDH) solution (CytoTox 96® Non-Radioactive Cytotoxicity Assay kit, Promega) was added to each well and incubated for a further 30 min at room temperature and protected from light. Cell death was determined by measuring absorbance at 490 nm using a microplate reader (PerkinElmer 1,420 Multilabel Counter VICTOR3). Positive and negative controls for inhibition were taken as cells incubated with lysis solution (CytoTox 96® Non-Radioactive Cytotoxicity Assay kit, Promega) and cells incubated in media alone, respectively. The background absorbance of media alone was subtracted from the sample absorbance, and the percentage of inhibition was calculated using the following formula: % Cytotoxicity=A490 test sample−A490 negative control/A490 positive control−A490 negative control×100.
(§7) The percentage of lysis was plotted against peptide concentration, and linear regression analysis was used to determine the AMP concentration needed to lyse 50% (LD50) of the cells.

[6] = tested on: HEK-293 (ATCC CRL-1573) cells; assay: Cytotoxicity (cell lysis), LDH release assay; conditions: for TI (cell lysis): HEK293, LD50/MBC50
Protocol: as §6, §7

E. coli ATCC 8739 [7] = conditions: cation-adjusted MHB, 90 min incubation at 37°C, plated on LB agar 12–24 h, lowest concentration giving less than one CFU (≥99.9% reduction), mean ± SD, at least three biological repeats
Protocol: as §1, §4, §5

Compound | MIC (E. coli ATCC 8739 [1]) | IC50 (H4IIE cells [2]; H4IIE cells, MTS proliferation assay after 90 min exposure, 1 h MTS, linear regression, mean ± SD, at least three biological repeats) | TI (cell proliferation) (H4IIE cells [2]; MIC50 toward S. aureus 29213) | TI (cell proliferation) (H4IIE cells [2]; MIC50 towards E. coli 8729) | TI (cell proliferation) ([3]; MIC50 toward S. aureus 29213) | TI (cell proliferation) ([3]; MIC50 towards E. coli 8729) | IC50 ([3]; HEK293 cells, MTS proliferation assay after 90 min exposure, 1 h MTS, linear regression, mean ± SD, at least three biological repeats) | MBC (S. aureus ATCC 29213; cation-adjusted MHB) | HC50 ([4]; chicken RBCs in PBS pH 7.4, 2 × 10^7 cells/mL stock, 10–0.08 μM, 2 h at 37°C, absorbance 405 nm, 1% Triton X-100 positive control, mean ± SD, at least three biological repeats) | TI (hemolysis) ([4]; chicken RBCs, HC50/MBC50, MBC50 toward S. aureus 29213) | TI (haemolysis) ([4]; chicken RBCs, HC50/MBC50, MBC50 towards E. coli 8729) | LD50 (H4IIE cells [5]; H4IIE cells, LDH release, 90 min exposure at 37°C, 20–0.5 μM, concentration lysing 50% of cells by linear regression, mean ± SD, at least three biological repeats) | TI (cell lysis) (H4IIE cells [5]; MBC50 toward S. aureus 29213) | TI (cell lysis) (H4IIE cells [5]; MBC50 towards E. coli 8729) | TI (cell lysis) ([6]; MBC50 toward S. aureus 29213) | TI (cell lysis) ([6]; MBC50 towards E. coli 8729) | LD50 ([6]; HEK293 cells, LDH release, 90 min exposure at 37°C, 20–0.5 μM, concentration lysing 50% of cells by linear regression, mean ± SD, at least three biological repeats) | MBC (E. coli ATCC 8739 [7]) | MBC (S. aureus ATCC 29213; Staphylococcus aureus, ATCC29213, cation-adjusted MHB, read-out: MBC)
CC[C@H](C)[C@H](NC(=O)CN)C(=O)NCC(=O)N[C@@H](C)C(=O)N[C@H](C(=O)N[C@@H](CC(C)C)C(=O)N[C@@H](CCCCN)C(=O)N[C@H](C(=O)N[C@@H](CC(C)C)C(=O)N[C@H](C(=O)N[C@H](C(=O)NCC(=O)N[C@@H](CC(C)C)C(=O)N1CCC[C@H]1C(=O)N[C@@H](C)C(=O)N[C@@H](CC(C)C)C(=O)N[C@H](C(=O)N[C@@H](CO)C(=O)N[C@@H](Cc1c[nH]c2ccccc12)C(=O)N[C@H](C(=O)N[C@@H](CCCCN)C(=O)N[C@@H](CCCNC(=N)N)C(=O)N[C@@H](CCCCN)C(=O)N[C@@H](CCCNC(=N)N)C(=O)N[C@@H](CCC(N)=O)C(=O)N[C@@H](CCC(N)=O)C(N)=O)[C@@H](C)CC)[C@@H](C)CC)[C@@H](C)O)[C@@H](C)O)C(C)C)C(C)C [1. Melittin, Melittin] | 6.89 ± 0.72 µM (≈ 19.6 µg/mL) | 2.88 ± 0.08 µM | 4.01 | 0.76 | 13.18 | 2.49 | 9.47 ± 3.63 µM | 1.76 ± 0.76 µM (≈ 5.01 µg/mL) | 0.59 ± 0.04 µM | 0.67 | 0.14 | 1.79 ± 0.95 µM | 2.05 | 0.41 | 0.85 | 0.17 | 0.75 ± 0.21 µM | 8.67 ± 0.93 µM (≈ 24.7 µg/mL) | 
CN[C@H](CC(C)C)C(=O)N[C@H]1C(=O)N[C@@H](CC(N)=O)C(=O)N[C@H]2C(=O)N[C@H]3C(=O)N[C@H](C(=O)N[C@H](C(=O)O)c4cc(O)cc(O)c4-c4cc3ccc4O)[C@H](O)c3ccc(c(Cl)c3)Oc3cc2cc(c3O[C@@H]2O[C@H](CO)[C@@H](O)[C@H](O)[C@H]2O[C@H]2C[C@](C)(N)[C@H](O)[C@H](C)O2)Oc2ccc(cc2Cl)[C@H]1O [Vancomycin] |  |  |  |  |  |  |  |  |  |  |  |  |  |  |  |  |  |  | 1.61 ± 0.44 µM (≈ 2.33 µg/mL)
Gentamycin | 2.27 ± 0.33 µM |  |  |  |  |  |  |  |  |  |  |  |  |  |  |  |  | 3.3 ± 0.78 µM | 
